{
  "source": "patent US9918964B2",
  "about": "“Reducing platelet activation, aggregation and platelet-stimulated thrombosis or blood coagulation by reducing mitochondrial respiration” (priority 2010, dated 2018)",
  "key": {"platelets in whole blood": {"system": "platelets in whole blood", "assay": "Platelet function testing with the Hemostasis Mechanism Analyzer (HMA): clumping, sticking, clotting in whole blood", "type": "cell-based, human"}, "mitochondria": {"system": "mitochondria", "assay": "Hydrogen peroxide levels on mitochondrial inhibition (unpublished results)", "source_text": "Various experimental models of Parkinson's disease and other maladies have implicated mitochondrial dysfunction and excessive Reactive Oxygen Species (ROS) as possible contributors. Fortunately it is routine in the art to screen mitochondrial inhibitors or indeed any platelet inhibitor for hydrogen peroxide production in vitro, to select active agents that are suitable for long term administration as long as the production of hydrogen peroxide is not excessive."}, "[1]": {"system": "mitochondria isolated from liver of tilapia (Sarotheridon mossambica)", "type": "biochemical", "conditions": "reversible if respiration rate after removing the inhibitor returned to greater than 75% of its value in the absence of inhibitor"}, "[2]": {"system": "mitochondria isolated from liver of tilapia (Sarotheridon mossambica)", "type": "biochemical"}},
  "note": "Several values for one entry are separate records, joined by “and”; a condition that tells them apart may be missing. Equal entries are not always repeated.",
  "data": [
    {"substance": "tetrazole [Compound 93]", "values": [
      {"measurement": "% clot time increase", "setting": "platelets in whole blood", "result": "150% and 128% and 114%"},
      {"measurement": "% clump time increase", "setting": "platelets in whole blood", "result": "211% and 194% and 116%"},
      {"measurement": "% stick time increase", "setting": "platelets in whole blood", "result": "193% and 173% and 116%"},
      {"measurement": "hydrogen peroxide levels", "setting": "mitochondria", "result": "elevated levels of hydrogen peroxide"},
      {"measurement": "Reversible?", "setting": "[1]", "result": "reversible and Yes"},
      {"measurement": "IC50 (mg/ml) mitochondria inhibition", "setting": "[2]", "result": 31.5, "unit": "mg/mL"}
    ]}
  ]
}
